Here are results for seven compounds from EP0416609A2, “Benzo[b]thiophene-containing lipoxygenase-inhibiting compounds” (ABBOTT LABORATORIES, priority 1989, dated 1991).

The target in the test is T1, 5-lipoxygenase (Rattus norvegicus, UniProt P12527).
T1 construct: containing the 20,000xg supernatant from 6x10⁴ homogenized RBL-1 cells; endogenous in cells; host or cells: RBL-1 cells (20,000xg supernatant of homogenate)
T1 sequence (P12527 1-673): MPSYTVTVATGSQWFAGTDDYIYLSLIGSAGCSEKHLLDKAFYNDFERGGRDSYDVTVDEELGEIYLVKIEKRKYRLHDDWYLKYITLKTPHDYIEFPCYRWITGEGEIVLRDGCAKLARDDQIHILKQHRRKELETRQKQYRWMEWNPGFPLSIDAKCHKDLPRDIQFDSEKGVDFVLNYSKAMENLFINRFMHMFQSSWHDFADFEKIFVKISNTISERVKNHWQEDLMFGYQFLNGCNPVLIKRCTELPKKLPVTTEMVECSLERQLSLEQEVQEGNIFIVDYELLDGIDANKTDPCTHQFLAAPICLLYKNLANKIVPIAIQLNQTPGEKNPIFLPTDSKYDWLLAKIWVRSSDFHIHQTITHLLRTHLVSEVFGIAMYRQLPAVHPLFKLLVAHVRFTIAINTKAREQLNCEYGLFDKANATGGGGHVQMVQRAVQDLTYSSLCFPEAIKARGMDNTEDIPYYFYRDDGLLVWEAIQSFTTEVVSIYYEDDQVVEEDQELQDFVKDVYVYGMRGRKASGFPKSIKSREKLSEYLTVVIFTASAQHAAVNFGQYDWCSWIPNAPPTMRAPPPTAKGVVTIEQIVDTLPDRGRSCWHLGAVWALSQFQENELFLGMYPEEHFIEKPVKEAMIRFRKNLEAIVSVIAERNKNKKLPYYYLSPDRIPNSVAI
Description: Lipoxygenase IC50 determination (20,000xg supernatant from homogenized RBL-1 cells, radiolabelled arachidonic acid). The format is biochemical. Conditions: 20,000xg supernatant from 6x10⁴ homogenized RBL-1 cells, 2% DMSO vehicle, triplicate incubations; read-out: IC₅₀. As for the experimental part:
Lipoxygenase IC₅₀ Determination
Reactions were initiated by addition of radiolabelled arachidonic acid and terminated by acidification and ether extraction. Reaction products were separated from nonconverted substrate by thin layer chromatography and measured by liquid scintillation spectroscopy. All treatments were evaluated in triplicate incubations. […] ICso values and 95% confidence limits were computed by linear regression analysis of percentage inhibition versus log inhibitor concentration plots.
As for `CC(=O)N(O)C(C)c1cc2ccccc2s1` (stereo not shown) [Example 1, N-hydroxy-N-(1-benzol[b]thien-2-ylethyl)acetamide], the IC50 worked out at 1.1 µM.

On to `CC(=O)ON(C(N)=O)C(C)c1cc2ccccc2s1` (stereo not shown) [Example 3, N-acetoxy-N-[1-(benzol[b]thien-2-yl)ethyl]urea], for which the IC50 stood at 2.1 µM.

`CCOC(=O)ON(C(N)=O)C(C)c1cc2ccccc2s1` (stereo not shown) [Example 4, N-ethoxycarbonyloxvyN-[1-(benzo[b]thien-2-yl)ethyl]urea]: the IC50 amounted to 1.5 µM.

For `COC(=O)ON(C(N)=O)C(C)c1cc2ccccc2s1` (stereo not shown) [Example 5, N-methoxycarbonyloxy-N-[1-(benzol[b]thien-2-yl)ethyl]urea], the IC50 stood at 1.2 µM.

Consider `CC(c1cc2ccccc2s1)N(OC(=O)CCC(=O)O)C(N)=O` (stereo not shown) [Example 9, N-succinyloxy-N-[1-(benzo[b]thien-2-yl)ethyl]urea], for which the IC50 turned out to be 0.6 µM.

`CC(=O)NC(=O)N(O)C(C)c1cc2ccccc2s1` (stereo not shown) [Example 10, N′-acetyl-N-hydroxy-N-[1-(benzo[b]thien-2-yl)ethyl]urea;]: the IC50 was determined as 1.5 µM.

As for `CC(c1cc2ccccc2s1)N(O)C(=O)NC(N)=O` (stereo not shown) [Example 11], the IC50 came out at 1 µM.
